# US20260169011A1, “METHODS AND COMPOSITIONS FOR PROVIDING CUSTOMIZED NUTRITIONAL SUPPLEMENTS” (Vibrant Holdings LLC, priority 2023, published 2026)
# Read-outs that look alike come from different tables or passages of the source.
# What was measured:
# [1] = Vibrant Absorption Factor (VAF): difference of post- and pre-supplementation nutrient values divided by ATB dosage
# From the text: Improvement in nutrition can be determined by comparing the nutrient values in serum, RBC, and WBCs post-nutritional supplementation to the nutrient values in serum, RBC, and WBCs pre-nutritional supplementation. Based on the improvement, the change in the nutrient levels can be attributed to the per milligram dosage of the supplemented nutrients. The assessed nutritional change is the “Vibrant Absorption factor (VAF (see Equation (1) below). The VAF can be used to determine the subject's utilization of the supplemented nutrients, as determined by the difference in extracellular and intracellular nutrient values before and after supplementation. Based on the subject's utility or absorption of the nutrients, the dosage amount of the nutrient needed to be supplemented or increased to effect change of the subject's nutrient values into the optimum nutrient zone can be assessed. In various embodiments, the VAF is determined by administering a pre-determined formulation, referred to herein as the Absorption Testing Blend.
# Next, the ATB is administered to the individual for a predefined period at step 320a, after which nutrient levels and the genetic nutrient profile are re-evaluated, to obtain the post-supplementation biomarker values at step 330.
# This includes determining the VAF based on the difference between post- and pre-supplementation biomarker values, which is divided by the ATB dosage.
# The assessed change is called the VAF. The VAF is used to understand how the individual's body is utilizing these nutrients, depending on the difference in extracellular and intracellular nutrient values before and after supplementation. Based on the body's utility or absorption of the nutrients, the amount of nutrients needed to be supplemented to alter the individual's nutrient values into the optimum nutrient zone is understood. The VAF calculations help in determining the appropriate dosages of nutrients required in the ‘customized blend.’
# [2] = NutriPro test: serum, RBC and WBC nutrient values before and after ATB / customized blend; type: in vivo, human; details: for Actual Nutrient Value (ANV): before customized blend; for concentration at 3 months: read-out: Follow-up Nutrient Level; for Pre-test biomarker level: before ATB
# From the text: The method for providing a nutritional supplement for a subject as disclosed herein is based on a comprehensive panel that assesses intracellular and extracellular levels of at least or up to 41 nutrients. […] Blood analysis using the method disclosed herein tests for nutrient levels in serum, red blood cells (RBCs), and white blood cells (WBCs). Additional genetic testing can assess patients' predispositions toward nutrient deficiencies. Based on the blood and genetic analysis results, a subsequent supplementation diet comprising supplements and food sources can be designed and implemented. The subject can be a human subject.
# In some embodiments, the detection method is mass spectrometry.
# The ‘NutriPro’ test is used to assess serum (extracellular), RBC, and WBC (intracellular) nutrient values along with genetic testing for any predispositions with could be affecting nutrient values in the body. If required, additional tests such as the gut zoomer, cardiovascular health, thyroid test, kidney function test, liver function test, etc, are carried out. FIG. 1 provides a schematic diagram of the process of the NutriPro test from the individual subject to the creation of customized nutritional blends.
# The ATB is given to the individual for nutritional supplementation, and blood testing for nutrients in serum, RBC, and WBC is carried out after 3 or 6 months.
# The assessed change is called the VAF.
# After testing, the individual takes the ATB or the customized blend for the amount of time indicated.
# [3] = cited from earlier work
# [4] = person one, level: Questionnaire
# [5] = human, in vivo, Level: Questionnaire, person, after customized blend
# [6] = person one, serum, after customized blend
# [7] = person three, serum, after customized blend
# [8] = person two, serum, after customized blend
structure (smiles),measurement,setting,value
N=C(N)NCCC[C@H](N)C(=O)O [Arginine],VAF,[1]; [4],2.7
same,Actual Nutrient Value (ANV),"[2]; Level: Questionnaire, person",84 nmol/mL
same,concentration at 3 months,[2]; [5],89.5 µM
same,Follow-up Biomarker level,"[2]; male, human, in vivo",234 nmol/mL
same,Post-test biomarker level,"[2]; male, human, in vivo",162 nmol/mL
same,Pre-test biomarker level,[2]; [4],135 nmol/mL
"[44Ca] [Calcium, Ca 44]",UTL,[3]; upper tolerable limit,"2,500 mg/day"
C[N+](C)(C)CC(O)CC(=O)[O-] (centres unmarked) [Carnitine],VAF,"[1]; person one, serum",1.08
same,Post-test biomarker level,"[2]; person one, serum, after ATB",14.9 nmol/mL
same,Follow-up Biomarker level,[2]; [6],42.5 nmol/mL
same,Pre-test biomarker level,"[2]; person one, serum",9.5 nmol/mL
same,Follow-up Nutrient Level,"[2]; person three, level: Questionnaire, after customized blend",43.2 nmol/mL
same,Actual Nutrient Value (ANV),"[2]; person three, level: Questionnaire",24 nmol/mL
same,UTL,"[3]; Table 18, person one",2000 mg/day
same,UTL,"[3]; Table 20, person three",2000 mg/day
C[N+](C)(C)CCO [Choline],UTL,[3]; upper tolerable limit,"3,500 mg/day"
[Cr] [Chromium],Follow-up Nutrient Level,[2]; [7],0.277 ng/mL
same,Actual Nutrient Value (ANV),"[2]; person three, serum",0.133 ng/mL
NC(=O)NCCC[C@H](N)C(=O)O [Citrulline],VAF,"[1]; person two, serum",0.76
same,Actual Nutrient Value (ANV),"[2]; Level: Questionnaire, person",19.2 nmol/mL
same,concentration at 3 months,[2]; [5],24.9 µM
same,Post-test biomarker level,"[2]; person two, serum, after ATB",16.7 nmol/mL
same,Follow-up Biomarker level,[2]; [8],43.4 nmol/mL
same,Pre-test biomarker level,"[2]; person two, serum",9.1 nmol/mL
COC1=C(OC)C(=O)C(C/C=C(\C)CC/C=C(\C)CC/C=C(\C)CC/C=C(\C)CC/C=C(\C)CC/C=C(\C)CC/C=C(\C)CC/C=C(\C)CC/C=C(\C)CCC=C(C)C)=C(C)C1=O [Coenzyme 10],VAF,"[1]; person one, serum",0.024
same,VAF,"[1]; person two, serum",0.22
same,Post-test biomarker level,"[2]; person one, serum, after ATB",0.32 µg/mL
same,Follow-up Biomarker level,[2]; [6],1.8 µg/mL
same,Pre-test biomarker level,"[2]; person one, serum",0.2 µg/mL
same,Post-test biomarker level,"[2]; person two, serum, after ATB",1.2 µg/mL
same,Follow-up Biomarker level,[2]; [8],1.88 µg/mL
same,Pre-test biomarker level,"[2]; person two, serum",0.1 µg/mL
same,UTL,"[3]; Table 18, person one","1,200 mg/day"
same,UTL,"[3]; Table 19, person two","1,200 mg/day"
COC1=C(OC)C(=O)C(C/C=C(\C)CC/C=C(\C)CC/C=C(\C)CC/C=C(\C)CC/C=C(\C)CC/C=C(\C)CC/C=C(\C)CC/C=C(\C)CC/C=C(\C)CCC=C(C)C)=C(C)C1=O [Coenzyme Q10],Follow-up Nutrient Level,[2]; [7],1990 ng/mL
same,Actual Nutrient Value (ANV),"[2]; person three, serum",100 ng/mL
same,UTL,"[3]; Table 20, person three","1,200 mg/day"
"[Cu] [Copper, Cu 63]",UTL,[3]; upper tolerable limit,10 mg/day
"CC/C=C\C/C=C\C/C=C\C/C=C\C/C=C\CCCCCC(=O)O [DPA, docosapentaenoic acid]",Follow-up Nutrient Level,"[2]; person three, cells, after customized blend, unit not given",1.2
same,Actual Nutrient Value (ANV),"[2]; person three, cells, unit not given",0.46
C[N+](C)(C)C[C@H](O)CC(=O)[O-] [Free Carnitine],UTL,[3]; upper tolerable limit,2000 mg/day
"[Fe] [Iron, Fe 56]",UTL,[3]; upper tolerable limit,45 mg/day
CC[C@H](C)[C@H](N)C(=O)O [Isoleucine],VAF,"[1]; person two, serum",8.514
same,Follow-up Nutrient Level,[2]; [7],144 nmol/mL
same,Actual Nutrient Value (ANV),"[2]; person three, serum",26.2 nmol/mL
same,Post-test biomarker level,"[2]; person two, serum, after ATB",44 nmol/mL
same,Follow-up Biomarker level,[2]; [8],149 nmol/mL
same,Pre-test biomarker level,"[2]; person two, serum",14.2 nmol/mL
N=C(N)NCCC[C@H](N)C(=O)O [L-Arginine],VAF,"[1]; person two, serum",0.9
same,Post-test biomarker level,"[2]; female, human, in vivo",67 nmol/mL
same,Follow-up Biomarker level,[2]; [8],232 nmol/mL
same,Pre-test biomarker level,"[2]; person two, serum",58 nmol/mL
CC(C)C[C@H](N)C(=O)O [L-Leucine],VAF,"[1]; person one, serum",5.429
same,Post-test biomarker level,"[2]; person one, serum, after ATB",101 nmol/m
same,Follow-up Biomarker level,[2]; [6],222 nmol/m
same,Pre-test biomarker level,"[2]; person one, serum",82 nmol/m
CC(C)[C@H](N)C(=O)O [L-Valine],VAF,"[1]; person one, serum",8.75
same,Post-test biomarker level,"[2]; person one, serum, after ATB",4.7e+10 nmol/mL
same,Follow-up Biomarker level,[2]; [6],322 nmol/mL
same,Pre-test biomarker level,"[2]; person one, serum",12 nmol/mL
CC(C)C[C@H](N)C(=O)O [Leucine],Follow-up Nutrient Level,[2]; [7],225 nmol/m
same,Actual Nutrient Value (ANV),"[2]; person three, serum",85 nmol/m
"[24Mg] [Magnesium, Mg 24]",UTL,[3]; upper tolerable limit,350 mg/day
[Mg] [Magnesium],VAF,"[1]; person one, serum",0.012
same,Post-test biomarker level,"[2]; person one, serum, after ATB",17 µg/mL
same,Follow-up Biomarker level,[2]; [6],25.2 µg/mL
same,Pre-test biomarker level,"[2]; person one, serum",5 µg/mL
same,UTL,"[3]; Table 18, person one",350 mg/day
